Test results: PubChem BioAssay (NCI)
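GI50 is the concentration that inhibits growth by half. TGI denotes the concentration required for complete inhibition of growth.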

Columns and labels:
Assay in all cases: DTP human tumour cell line panel, 384-well format
[1] = system: OVCAR-5 ovarian
[2] = system: A549 NSCLC
[3] = system: UACC-62 melanoma
[4] = system: HT29 colon
[5] = system: OVCAR-3 ovarian
[6] = system: HOP-92 NSCLC
[7] = system: BT-549 breast
[8] = system: SNB-19 CNS
[9] = system: CCRF-CEM leukemia
[10] = system: OVCAR-8 ovarian
[11] = system: MDA-MB-468 breast
[12] = system: SK-MEL-28 melanoma
[13] = system: KM12 colon
[14] = system: NCI-H226 lung
[15] = system: HCC-2998 colon
[16] = system: EKVX NSCLC
[17] = system: MDA-MB-435 melanoma
[18] = system: MCF7 breast
[19] = system: NCI-H522 lung
[20] = system: ACHN renal
[21] = system: TK-10 renal
[22] = system: MALME-3M melanoma
[23] = system: PC-3 prostate
[24] = system: COLO 205 colon
[25] = system: HS 578T breast
[26] = system: SF-295 CNS
[27] = system: SNB-75 CNS
[28] = system: 786-0 renal
[29] = system: SW-620 colon
[30] = system: HCT-15 colon
[31] = system: SK-MEL-5 melanoma
[32] = system: SR leukemia
[33] = system: UO-31 renal
[34] = system: NCI-H23 lung
[35] = system: SN12C renal
[36] = system: A498 renal
[37] = system: NCI-H460 NSCLC
[38] = system: SF-539 CNS
[39] = system: IGROV1 ovarian
[40] = system: SF-268 CNS
[41] = system: MDA-MB-231 breast
[42] = system: HCT-116 colon
[43] = system: RPMI-8226 leukemia
[44] = system: DU-145 prostate
[45] = system: SK-OV-3 ovarian
[46] = system: OVCAR-4 ovarian
[47] = system: HOP-62 NSCLC
[48] = system: M14 melanoma
[49] = system: LOX IMVI melanoma
[50] = system: MOLT-4 leukemia
[51] = system: UACC-257 melanoma
[52] = system: HL-60(TB) leukemia
[53] = system: NCI/ADR-RES ovarian
[54] = system: CAKI-1 renal
[55] = system: RXF 393 renal

In the case of `CCN1C(=O)N(c2c(F)c(OC)cc(OC)c2F)Cc2cnc3[nH]c(CN4CCOCC4)cc3c21`, the GI50 [1] is reported as > 73.3 µM, the TGI [1] is reported as > 100 µM and the GI50 [2] is reported as 4.69 µM. For the same compound, the TGI [2] was > 31.6 µM, the GI50 [3] was 3.8 µM and the TGI [3] was > 100 µM. The GI50 [4] was 6.48 µM, the GI50 [5] was 5.94 µM and the TGI [5] was > 31.6 µM. For the same compound, the GI50 [6] was 3.5 µM, the TGI [6] was 23.6 µM and the GI50 [7] was 0.0807 µM. The TGI [7] was 7.02 µM, the GI50 [8] was > 100 µM and the TGI [8] was > 100 µM. For the same compound, the GI50 [9] was 5.26 µM, the GI50 [10] was 4.8 µM and the TGI [10] was > 100 µM. For the same compound, the GI50 [11] was 3.64 µM, the TGI [11] was 9.09 µM and the GI50 [12] was > 100 µM. For the same compound, the TGI [12] was > 100 µM, the GI50 [13] was 9.71 µM and the TGI [13] was > 31.6 µM. For the same compound, the TGI [14] was 9.91 µM, the GI50 [15] was 6.61 µM and the TGI [15] was > 100 µM. The GI50 [16] was > 81 µM, the TGI [16] was > 100 µM and the GI50 [17] was > 100 µM. For the same compound, the TGI [17] was > 100 µM, the GI50 [18] was > 60.4 µM and the TGI [18] was > 100 µM. The GI50 [19] was > 26.1 µM, the TGI [19] was > 100 µM and the GI50 [20] was 3.86 µM. The TGI [20] was > 100 µM, the GI50 [21] was > 100 µM and the TGI [21] was > 100 µM. For the same compound, the GI50 [22] was 4.24 µM, the TGI [22] was > 30.1 µM and the GI50 [23] was > 100 µM. The TGI [23] was > 100 µM, the GI50 [24] was > 100 µM and the TGI [24] was > 100 µM. For the same compound, the GI50 [25] was 1.06 µM, the TGI [25] was 5.82 µM and the GI50 [26] was 4.62 µM. For the same compound, the TGI [26] was 47.4 µM, the GI50 [27] was 0.0229 µM and the TGI [27] was 6.52 µM. For the same compound, the GI50 [28] was 6.99 µM, the TGI [28] was > 100 µM and the GI50 [29] was 7.31 µM. The GI50 [30] was 3.17 µM, the TGI [30] was > 100 µM and the GI50 [31] was 5.75 µM. For the same compound, the TGI [31] was > 100 µM, the GI50 [32] was 2.67 µM and the TGI [32] was 8.35 µM. The GI50 [33] was > 31 µM, the TGI [33] was > 100 µM and the GI50 [34] was > 23.3 µM. For the same compound, the TGI [34] was > 100 µM, the GI50 [35] was 5.32 µM and the TGI [35] was > 100 µM. The GI50 [36] was 2.03 µM, the TGI [36] was 57.3 µM and the GI50 [37] was 3.48 µM. For the same compound, the TGI [37] was > 31.6 µM, the GI50 [38] was 3.55 µM and the TGI [38] was > 44.5 µM. The GI50 [39] was 4.55 µM, the TGI [39] was > 100 µM and the GI50 [40] was 5.25 µM. It also gave a TGI [40] of 16.9 µM, a GI50 [41] of 6.15 µM and a TGI [41] of 43.5 µM. The GI50 [42] was 3.84 µM, the TGI [42] was > 100 µM and the GI50 [43] was 2.11 µM. The TGI [43] was 6.34 µM, the GI50 [44] was 3.85 µM and the TGI [44] was > 100 µM. The GI50 [45] was 2.62 µM, the TGI [45] was > 100 µM and the GI50 [46] was 19.3 µM. For the same compound, the TGI [46] was > 100 µM, the GI50 [47] was 4.98 µM and the TGI [47] was > 100 µM. For the same compound, the GI50 [48] was 5.19 µM, the TGI [48] was > 100 µM and the GI50 [49] was 4.03 µM. For the same compound, the TGI [49] was > 31.5 µM, the GI50 [50] was 1.95 µM and the TGI [50] was 4 µM. For the same compound, the GI50 [51] was > 100 µM, the TGI [51] was > 100 µM and the GI50 [52] was 3.28 µM. For the same compound, the TGI [52] was 12.5 µM, the GI50 [53] was 4.51 µM and the TGI [53] was > 100 µM. For the same compound, the GI50 [54] was 1.03 µM, the TGI [54] was > 31.4 µM and the GI50 [55] was 0.962 µM.
